Results reported in US20120232025A1, “SAFENER DRUG COMBINATIONS FOR USE WITH NMDA […]” (priority 2010, published 2012).
Where two headings read alike, the source gives them in different places.

How the values were obtained:
[1] = tested on: excitotoxic neurodegeneration; assay: standard animal models of excitotoxic neurodegeneration; type: in vivo; conditions: only at very high doses that cause severe functional and behavioral disturbances
Text: However, it may well be that such concerns, by the Applicants, are not especially serious or acute, in view of the relatively low dosages of memantine that are actually being administered to Alzheimer patients. The Applicants have tested memantine, in animals, to measure and quantify its ability to protect against excitotoxic neurodegeneration, using several standard animal models that are used to test and measure excitotoxic neurodegeneration. […] Therefore, it is very unlikely that memantine is being administered, to Alzheimer patients, at dosages that are actually high enough to prevent excitotoxic neurodegeneration, since the dosages being used in human patients are not causing the types of observable functional disturbances that have been seen when anti-excitotoxic dosages are administered.

depressive symptoms = conditions: cited from earlier work
Alzheimer's disease = conditions: cited from earlier work
neuropathic pain [2] = conditions: cited from earlier work
cerebrocortical neurons [3] = assay: vacuole formation / neurotoxic damage in rat brain after NMDA antagonist administration; conditions: for vacuole-forming ED100 dosage: intraperitoneal injection, aging female rats, vacuole response in 100% of animals; for potency relative to MK-801 (from ED100 numbers): vacuole formation / NMDA receptor blocker ranking, fraction of MK-801 potency
Text: First, that dosage is based on intraperitoneal injection. […] This is a simple, quick, and convenient mode of injection, and it is widely used in research. If desired, intravenous injection in rats can be performed by using the tail vein, but that is slower, more tedious, more difficult, and more prone to experimental error.
This runs contrary to most types of drug tests on rats, in which females tend to be avoided, because of potentially uncontrolled variables created by reproductive hormones. Most female rats that have been used, in tests done to date, are retired breeders, with ages of about 7 months or more.
For convenience, to avoid having to use subscript fonts or notations, terms such as […] also can be written as ED-100, or simply as […].
Whenever a term such as ED100 is being used, it requires an understanding of any essential factors that should be known by any researchers who might try to perform similar tests. In this situation, researchers would need to know the route of administration (intraperitoneal injection), and the types of animals used to determine the ED100 level (i.e., aging female rats).

[4] = as an anesthetic; cited from earlier work
[5] = tested on: neurotoxic side effects of MK-801 or phencyclidine; assay: safener protection against neurotoxic side effects (vacuole formation) of NMDA antagonists; type: in vivo, rat
[6] = tested on: neurotoxic side effects of MK-801 or phencyclidine; conditions: cited from earlier work
neuropathic pain [7] = assay: animal models of neuropathic pain; type: in vivo
cerebrocortical neurons [8] = conditions: rats, persistent administration of the NMDA antagonist; cited from earlier work
psychotomimetic effects = conditions: cited from earlier work
neuropathic pain [9] = conditions: cited from earlier work; remark: listed apart in the source

In the case of `CC12CC3CC(C)(C1)CC(N)(C3)C2` [memantine], the “protection against excitotoxic damage” value [1] is listed as “some level of protection against excitotoxic damage”, the “improvement in depressive symptoms” value (depressive symptoms; 20 mg/day, 8 weeks, severe chronic depression (Zarate et al 2006a)) is listed as “no signs of improvement” and the “further deterioration of cognitive function” value (Alzheimer's disease; Alzheimer patients) is listed as “did not prevent further deterioration”. For the same compound, the “global assessment of cognition and ability to manage daily activities” value (Alzheimer's disease; low dose, middle-stage Alzheimer patients) was “transient and slight improvements”.

In the case of `CNC1(c2ccccc2Cl)CCCCC1=O` (racemic) [ketamine], the side effects (neuropathic pain [2]; continuous subcutaneous infusion, one patient (Backonja et al 1994)) is given as “intolerable cognitive and memory side effects”, the side effects (neuropathic pain [2]; single-dosage injections, six patients (Backonja et al 1994)) is given as “mild and well tolerated” and the side effects (neuropathic pain [2]; subcutaneous injections over 7 days and nights (Eide et al 1995)) is given as “intolerable side effects”. The “relief from depressive symptoms” value (depressive symptoms; intravenous infusion for 40 minutes, small group (Berman et al 2000)) was “transient but significant relief”, the “relief from depressive symptoms” value (depressive symptoms; prolonged subanesthetic intravenous infusion up to 4 days, 2 patients (Correll et al 2005)) was “rapid and lasting relief” and the “time to relief from depressive symptoms after infusion” value (depressive symptoms; single 40 minute intravenous infusion, treatment resistant depression (Zarate et al 2006b)) was “less than 2 hours”. For the same compound, the “duration of remission of symptoms” value (depressive symptoms; single 40 minute intravenous infusion, significant number of patients (Zarate et al 2006b)) was “up to a week”, the “potency relative to phencyclidine (from ED100 numbers)” value (cerebrocortical neurons [3]; fraction of phencyclidine potency) was “about 1/10” and the “vacuole-forming ED100 dosage” value (cerebrocortical neurons [3]) was 40 mg/kg. The “potency relative to MK-801 (from ED100 numbers)” value (cerebrocortical neurons [3]) was “about 1/100”.

For `CN[C@]1(c2ccccc2Cl)CCCCC1=O` [S-ketamine], the “anesthetic potency relative to R-ketamine” value [4] is given as “about twice as potent”.

For `O=C(CCCN1CCC(O)(c2ccc(Cl)cc2)CC1)c1ccc(F)cc1` [haloperidol], the “prevention of NMDA antagonist-induced vacuole formation” value ([5]; test animals, given at the same time as the NMDA antagonist, clinically relevant dosages) is listed as “could not prevent” and the “safening potency compared with sigma-selective drugs” value ([6]; required substantially higher dosages) is listed as “not as potent or effective”.

For `CN(C)CCC=C1c2ccccc2CCc2ccccc21` [amitriptyline], the neuropathic pain-relieving activity (neuropathic pain [7]; animal models, administered by itself) was “neuropathic pain-relieving activity”, the “effect on neuropathic pain-relieving activity of memantine” value (neuropathic pain [7]; coadministered with memantine) was “potentiated” and the “safening activity against neurotoxic side effects of MK-801” value ([5]; coadministered with MK-801, unpublished experiments) was “substantial safening activity”.

For `[N-]=[N+]=O` [nitrous oxide], the “time after which irreversible changes inside animal brains begin to manifest” value (cerebrocortical neurons [8]) is given as “about 8 hours”.

For `Nc1nc2ccc(OC(F)(F)F)cc2s1` [riluzole], the “benefit in major depression” value (depressive symptoms; Zarate et al 2004) is listed as “beneficial”.

For `N=C(N)N/N=C/c1c(Cl)cccc1Cl` [guanabenz], the “neurotoxic effects of NMDA antagonists in animals” value (from here on “neurotoxic effects”) [6] is listed as “suppressed or prevented” and the “psychotomimetic effects of NMDA antagonists in humans” value (“psychotomimetic effects” for short) (psychotomimetic effects) is listed as “suppressed or prevented”.

For `Nc1nnc(-c2cccc(Cl)c2Cl)c(N)n1` [lamotrigine], the “neurotoxic effects” value [6] is given as “suppressed or prevented” and the “psychotomimetic effects” value (psychotomimetic effects) is given as “suppressed or prevented”.

For `Clc1cccc(Cl)c1N=C1NCCN1` [clonidine], the “effect on MK-801's neuropathic pain-relieving activity” value (neuropathic pain [9]; administered together with MK-801) is given as “potentiates”, the “neuropathic pain relieving activity” value (neuropathic pain [9]; alone) is given as “neuropathic pain relieving activity” and the “neurotoxic effects” value [6] is given as “suppressed or prevented”. For the same compound, the “psychotomimetic effects” value (psychotomimetic effects) was “suppressed or prevented”.

In the case of `c1ccc(C2(N3CCCCC3)CCCCC2)cc1` [phencyclidine], the “vacuole-forming ED100 dosage” value (cerebrocortical neurons [3]) is reported as 4.0 mg/kg and the “potency relative to MK-801 (from ED100 numbers)” value (cerebrocortical neurons [3]) is reported as “about 1/10”.

In the case of `OC(CCN1CCCC1)(c1ccccc1)C1CCCCC1` (stereo not shown) [procyclidine], the “relief for neuropathic pain” value (neuropathic pain [9]; animal models, reported in journals) is listed as “offers relief for neuropathic pain”.

In the case of `CN1CCN(C2=Nc3cc(F)ccc3Cc3ccccc32)CC1` [fluperlapine], the “reduction of toxic side effects of MK-801 and PCP” value ([6]; tests on rats) is given as “reduce the toxic side effects”.
